Measured values from patent US11312718B2, “Formulations of (S)-3-(1-(9H-purin-6-ylamino)ethyl)-8-chloro-2-phenylisoquinolin-1(2H)-one” (Infinity Pharmaceuticals, Inc., priority 2011, dated 2022).
One block for each compound: values may come before it.

Columns and labels:
B6.Sle1z.Sle3z model = settings: cited from earlier work
[1] = test system: leukemic cells from early passage p190 transduced cultures; settings: at about 70 mg/kg twice daily; cited from earlier work
[2] = Dynamic vapor sorption (DVS) / moisture sorption analysis; format: physicochemical
Procedure: Compounds and polymorphs provided herein can be characterized by moisture sorption analysis. This analysis was performed using a Hiden IGAsorp Moisture Sorption instrument. Moisture sorption experiments were carried out at about 25° C. by performing an adsorption scan from about 40% to about 90% RH in steps of about 10% RH and a desorption scan from about […] to about 0% RH in steps of about −10% RH. A second adsorption scan from about 10% to about 40% RH was performed to determine the moisture uptake from a drying state to the starting humidity. Samples were allowed to equilibrate for about four hours at each point or until an asymptotic weight was reached. After the isothermal sorption scan, samples were dried for about one hour at elevated temperature (about 60° C.) to obtain the dry weight. XRPD analysis on the material following moisture sorption was performed to determine the solid form.
Dynamic vapor sorption (DVS) analysis was performed on polymorph Forms A, B, C, D, and E using the DVS instrument and parameters as described above. […] Hysteresis indicative of hemi-hydrate formation was observed.

[3] = Grinding stability (mortar and pestle); format: physicochemical; settings: by hand, 2 and 5 min, XRPD
Procedure: Forms A, C, D, and E were subjected to grinding experiments performed using a mortar and pestle by hand. Samples were lightly grounded for 2 minutes then analyzed by XRPD. Material was then returned to the mortar and pestle and grounded for an additional 3 minutes, for a total of 5 minutes of grinding, and re-analyzed by XRPD.

[4] = 1 week
Procedure: (§1) Forms A, B, C, D, and E were held at 60° C. for 10 days followed by analysis by XRPD. In each case, 8 mL vials were charged with approximately 20 mg of material, with the exception of Form B for which 10 mg of material was charged. Samples equilibrated in an oven for 10 days.

[5] = Thermal stability (60° C.); settings: held at 60° C. for 10 days
Procedure: as §1

SMILES: CO[C@H]1C[C@@H]2CC[C@@H](C)[C@@](O)(O2)C(=O)C(=O)N2CCCC[C@H]2C(=O)O[C@H]([C@H](C)C[C@@H]2CC[C@@H](OCCO)[C@H](OC)C2)CC(=O)[C@H](C)/C=C(\C)[C@@H](O)[C@@H](OC)C(=O)[C@H](C)C[C@H](C)/C=C/C=C/C=C/1C [RAD001]
lupus symptoms (B6.Sle1z.Sle3z model): ameliorate lupus symptoms

SMILES: Cc1ccc(NC(=O)c2ccc(CN3CCN(C)CC3)cc2)cc1Nc1nccc(-c2cccnc2)n1 [imatinib]
leukemogenesis [1]: delay but not cure leukemogenesis

DVS ([2]; @ 60% RH): 1.9% @ 60% RH
DVS ([2]; @ 90% RH): 2.2% @ 90% RH
hygroscopicity ([2]; DVS): slightly hygroscopic
moisture uptake at 60% RH ([2]; DVS, about 25° C., 60% RH): 1.9 wt %
moisture uptake at 90% RH ([2]; DVS, about 25° C., 90% RH): 2.2 wt %
Grinding (mortar & pestle) [3]: amorphous
Thermal stability (60° C.) [4]: stable after 1
polymorph Form changes by XRPD [5]: No polymorph Form changes were observed
SMILES: C[C@H](Nc1ncnc2[nH]cnc12)c1cc2cccc(Cl)c2c(=O)n1-c1ccccc1 [Form E, (S)-3-(1-(9H-purin-6-ylamino)ethyl)-8-chloro-2-phenylisoquinolin-1(2H)-one]
